We go through 1 compound from patent publication US20250127787A1, “METHODS FOR TREATING PERIPHERAL NEUROPATHY” (University of Pittsburgh - Of the Commonwealth System of …, priority 2021, published 2025).

The subject of test [1] is CD68. As to the kind of experiment: CD68 expression in PAC-CIPN rat spinal cord, Western immunoblotting. It counts as in vivo. The settings on record: 8-AG 5 mg/kg/day in drinking water. How it is done: Animals: This study employed female Harlan Sprague Dawley (HSD) rats (3-4 mo; Envigo, Indianapolis, IN) and were divided into the following groups: 1) Control, 2) Cyclophosphamide (CYP, 75 mg/kg i.p. in saline vehicle; administered on days 0, 3 and 6 until sacrifice on day 8); 4) Paclitaxel (2 mg/kg i.p., 2 mg/kg i.p. in saline from a stock solution of 50/50 CremophorEL/ethanol); administered on days 0, 2, 4 and 6 until sacrifice on day 8; 4) 8-aminoguanine (8-AG; 5 mg/kg/day in drinking water; beginning 2 weeks prior to either CYP or PAC and continuing until sacrifice (day 8)). The dose of 8-AG was based on the experiments described above. […] All tissues (spinal cord and hindpaw epidermis) were removed from isoflurane anesthetized rats and the tissue was used for various experimental approaches as described below. At the end of tissue removal, animals were sacrificed by thoracotomy. […]
Background: Immunoblotting shows a protein as a band on a membrane.

Test [2] relates to inosine and guanosine. As to the kind of experiment: Purine levels (inosine, guanosine) in CYP-CIPN rat epidermis (footpad). Format: in vivo. As to conditions: 8-AG 5 mg/kg/day in drinking water. Here is the method: Animals. This study employed female Harlan Sprague Dawley (HSD) rats (3-4 mo; Envigo, Indianapolis, IN) and were divided into the following groups: 1) Control, 2) Cyclophosphamide (CYP, 75 mg/kg i.p. in saline vehicle; administered on days 0, 3 and 6); 3) 8-aminoguanine (8-AG; 5 mg/kg/day in drinking water; beginning 2 weeks prior to CYP and continuing until sacrifice (day 8)). The dose of 8-AG is based on our preliminary and published experiments. […] The investigation conforms to the Guide for the Care and Use of Laboratory Animals published by the US National Institutes of Health (NIH Publication No. 85-23, revised 1996). In addition, all tissues (dorsal root ganglion, spinal cord, peripheral nerves and hindpaw epidermis) were removed from isoflurane anesthetized rats and the tissue was used for various experimental approaches as described below. At the end of tissue removal, animals were sacrificed by thoracotomy.

Entries after “also recorded” stand apart in the source; their conditions may differ.

For `Nc1nc2[nH]c(N)nc2c(=O)[nH]1` [8-AG, 8-Aminoguanine], the “effect on PAC-induced increase in CD68 expression” value in test [1] is given as “significantly reduced”. Moreover, in test [2], the “effect on CYP-induced decrease in guanosine levels” value is on record as “normalizes; also recorded: completely restored” and the “effect on CYP-induced decrease in inosine levels” value is “normalizes; also recorded: completely restored”.
